# US4877785A, “Non-peptidyl beta-succinamidoacyl aminodiols as anti-hypertensive agents” (G. D. Searle & Co., priority 1987, dated 1989)
# Where a SMILES comes first, the peptide text is derived from it. [ ]: non-standard residue; d: D form. The star is where a group is joined. Sta = CC(C)C[C@H](N)[C@@H](O)CC(=O)O; Isovaleryl = CC(C)CC(=O)*
# What was measured:
# [1] = biological target: T1, Human renin (Homo sapiens, UniProt P00797); assay: human renin inhibition test in vitro (angiotensin I determined by radioimmunoassay); format: biochemical; conditions: pH 7.4, 37° C., two hours, human plasma
# T1 construct: purchased National Institute for Biological Standards, London
# T1 sequence (P00797 67-406): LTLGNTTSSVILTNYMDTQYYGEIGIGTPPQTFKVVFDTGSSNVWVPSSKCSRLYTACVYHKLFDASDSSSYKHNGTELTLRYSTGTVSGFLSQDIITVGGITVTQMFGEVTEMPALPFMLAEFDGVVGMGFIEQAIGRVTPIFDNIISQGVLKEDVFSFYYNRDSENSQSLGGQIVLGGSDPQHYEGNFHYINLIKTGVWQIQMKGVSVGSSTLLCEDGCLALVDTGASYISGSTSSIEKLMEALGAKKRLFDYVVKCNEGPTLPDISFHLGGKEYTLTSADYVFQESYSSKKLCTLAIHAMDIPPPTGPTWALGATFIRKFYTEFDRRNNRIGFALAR
# Protocol: Compounds of Formula I were evaluated as inhibitors of human renin in an in vitro assay, as follows: This human renin inhibition test has been previously described in detail [Papaioannou, et al., Clinical and Experimental Hypertension, A7(9), 1243-1257 (1985)]. Human renin was obtained from the National Institute for Biological Standards, London. In a total volume of 0.25 mL 100 mM Tris-acetate buffer at pH 7.4, 25×10^-6 Goldblatt units of renin, 0.05 mL of plasma from human volunteers taking oral contraceptives, 6.0 mM sodium EDTA, 2.4 mM phenylmethyl sulfonyl fluoride, 1.5 mM 8-hydroxyquinoline, 0.4 mg/mL BSA, and 0.024 mg/mL neomycin sulfate were incubated for two hours at 37° C. in the presence or absence of renin inhibitors. The produced angiotensin I was determined by radioimmunoassay (New England Nuclear kit). Compounds of formula I to be assayed were solubilized in either ethyl alcohol or DMSO and diluted with 100 mM Tris-acetate buffer at pH 7.4 to the appropriate concentration. The final concentration of organic solvent in the reaction mixture was less than 1%. Control incubations at 37° C. were used to correct for effects of organic solvent on renin activity.
# [2] = tested on: hog renin; conditions: after injection of hog renin into nephrectomized rats; cited from earlier work
# [3] = tested on: pepsin; conditions: cited from earlier work
# [4] = tested on: renin; conditions: cited from earlier work
# [5] = tested on: cathepsin D; conditions: cited from earlier work
Structure (SMILES),IC50 [1],reduction of blood pressure in vivo [2],inhibition of pepsin [3],inhibition of renin [4],inhibition of cathepsin D [5]
"CC(C)C[C@H](O)[C@H](O)[C@H](CC1CCCCC1)NC(=O)C(C)CNC(=O)C(CC(=O)N1CCOCC1)Cc1cccc2ccccc12 (single isomer, unassigned; isomer a) [Example 11]",330 nM,–,–,–,–
"CC(C)C[C@H](O)[C@H](O)[C@H](CC1CCCCC1)NC(=O)C(C)CNC(=O)C(CC(=O)N1CCOCC1)Cc1cccc2ccccc12 (single isomer, unassigned; isomer b) [Example 13]",1000 nM,–,–,–,–
CC(C)CC(=O)N[C@H](C(=O)N[C@H](C(=O)N[C@@H](CC(C)C)[C@@H](O)CC(=O)N[C@@H](C)C(=O)N[C@@H](CC(C)C)[C@@H](O)CC(=O)O)C(C)C)C(C)C [pepstatin] (Isovaleryl-VV[Sta]A[Sta]-OH),–,found to reduce blood pressure in vivo,inhibitor,inhibitor,inhibitor
